Calls of active or inactive are those of the source. The rule behind the calls is not given here.

Assay [1] has as its target T1, Inhibitor of nuclear factor kappa-B kinase subunit beta (Homo sapiens) (UniProt O14920).
T1 sequence (whole entry): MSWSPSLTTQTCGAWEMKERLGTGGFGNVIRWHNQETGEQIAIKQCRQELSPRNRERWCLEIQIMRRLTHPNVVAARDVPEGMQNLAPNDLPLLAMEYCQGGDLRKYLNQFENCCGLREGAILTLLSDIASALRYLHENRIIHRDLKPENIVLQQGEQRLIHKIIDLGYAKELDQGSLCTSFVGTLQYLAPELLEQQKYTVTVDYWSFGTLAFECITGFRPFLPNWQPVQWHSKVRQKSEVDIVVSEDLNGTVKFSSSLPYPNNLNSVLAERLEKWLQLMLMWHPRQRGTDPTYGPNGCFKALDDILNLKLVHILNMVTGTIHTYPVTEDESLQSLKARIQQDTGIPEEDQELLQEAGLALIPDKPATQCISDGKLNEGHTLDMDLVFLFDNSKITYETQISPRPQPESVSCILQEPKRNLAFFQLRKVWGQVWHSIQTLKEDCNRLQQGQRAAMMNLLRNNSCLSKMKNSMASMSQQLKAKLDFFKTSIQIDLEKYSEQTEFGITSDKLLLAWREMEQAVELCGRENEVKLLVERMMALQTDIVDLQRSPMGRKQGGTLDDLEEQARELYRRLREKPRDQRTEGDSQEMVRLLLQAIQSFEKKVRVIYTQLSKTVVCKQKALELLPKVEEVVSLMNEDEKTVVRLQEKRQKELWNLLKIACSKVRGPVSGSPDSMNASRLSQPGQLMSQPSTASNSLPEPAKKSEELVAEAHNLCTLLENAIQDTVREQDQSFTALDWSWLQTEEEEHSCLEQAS
The experiment in a line: Inhibition of IKK-beta (unknown origin) at 1 uM by Ambit Kinomescan binding assay relative to control; values are per cent of control.

The target of assay [2] is MAP/microtubule affinity-regulating kinase 4 (Homo sapiens) (UniProt Q96L34). The experiment in a line: Inhibition of MARK4 (unknown origin) at 1 uM by Ambit Kinomescan binding assay relative to control.
Assay [3] has as its target T2, Serine/threonine-protein kinase STK11 (Homo sapiens) (UniProt Q15831).
T2 sequence (whole entry): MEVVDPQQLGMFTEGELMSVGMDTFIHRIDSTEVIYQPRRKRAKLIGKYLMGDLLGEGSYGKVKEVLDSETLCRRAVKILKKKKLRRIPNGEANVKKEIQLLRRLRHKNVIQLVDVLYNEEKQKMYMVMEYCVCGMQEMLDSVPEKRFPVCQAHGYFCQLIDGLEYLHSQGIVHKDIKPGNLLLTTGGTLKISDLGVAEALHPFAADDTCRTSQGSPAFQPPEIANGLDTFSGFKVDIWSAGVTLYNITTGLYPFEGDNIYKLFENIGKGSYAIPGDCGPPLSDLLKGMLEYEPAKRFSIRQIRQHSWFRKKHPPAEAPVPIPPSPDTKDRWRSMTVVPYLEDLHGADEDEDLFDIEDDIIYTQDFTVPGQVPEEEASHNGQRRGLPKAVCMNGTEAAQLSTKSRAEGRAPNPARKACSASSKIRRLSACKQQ
The experiment in a line: Inhibition of LKB1 Lys2 labeling site in human A-375 cells at 0.5 uM by KiNativ Profiling analysis relative to control. Format: cell-based.

Assay [4] concerns the target Phosphatidylinositol 4-phosphate 5-kinase type-1 gamma (Homo sapiens) (UniProt O60331). The experiment in a line: Inhibition of PIP5K1C (unknown origin) at 1 uM by Ambit Kinomescan binding assay relative to control; values are per cent of control.
Assay [5] deals with Tyrosine-protein kinase ABL1 (Homo sapiens), P00519 [Q252H]. The experiment in a line: Inhibition of phosphorylated ABL1 Q252H mutant (unknown origin) at 1 uM by Ambit Kinomescan binding assay relative to control; values are per cent of control.
For assay [6], the target named is RAC-alpha serine/threonine-protein kinase (Homo sapiens) (UniProt P31749). The experiment in a line: Inhibition of AKT1 ATP Loop labeling site in human A-375 cells at 5 uM by KiNativ Profiling analysis relative to control. Format: cell-based.
Assay [7] concerns the target Cyclin-dependent kinase 1 (Homo sapiens) (UniProt P06493). The experiment in a line: Inhibition of CDC2 Lys2 labeling site harbouring VLHRDLKPQNLLIDDKGTIK in human A-375 cells at 0.5 uM by KiNativ Profiling analysis relative to control. Format: cell-based.
Assay [8] deals with Tyrosine-protein kinase Srms (Homo sapiens) (UniProt Q9H3Y6). The experiment in a line: Inhibition of SRMS (unknown origin) at 10 uM by Ambit Kinomescan binding assay relative to control; values are per cent of control.
Assay [9] addresses Calcium/calmodulin-dependent protein kinase type 1D (Homo sapiens) (UniProt Q8IU85). The experiment in a line: Inhibition of CAMK1D (unknown origin) at 10 uM by Ambit Kinomescan binding assay relative to control.
Assay [10] deals with Platelet-derived growth factor receptor beta (Homo sapiens) (UniProt P09619). The experiment in a line: Inhibition of PDGFRB (unknown origin) at 10 uM by Ambit Kinomescan binding assay relative to control.
For assay [11], the target named is p38 delta/gamma (Homo sapiens) (UniProt O15264+P53778). The experiment in a line: Inhibition of p38d/g K2 labeling site in human Huh-7 cells at 1 uM by KiNativ Profiling analysis relative to control. Format: cell-based.
Assay [12] addresses Cyclin-dependent kinase 14 (Homo sapiens) (UniProt O94921). The experiment in a line: Inhibition of PFTAIRE1 Lys1 labeling site in human A-375 cells at 0.05 uM by KiNativ Profiling analysis relative to control.
For assay [13], the target named is Mitogen-activated protein kinase 6 (Homo sapiens) (UniProt Q16659). The experiment in a line: Inhibition of ERK3 (unknown origin) at 10 uM by Ambit Kinomescan binding assay.
Assay [14] has as its target Serine/threonine-protein kinase 38-like (Homo sapiens) (UniProt Q9Y2H1). The experiment in a line: Inhibition of NDR2 ACT labeling site in human Huh-7 cell lysate at 1 uM by KiNativ Profiling analysis relative to control. Format: subcellular.
The target in assay [15] is Serine/threonine-protein kinase/endoribonuclease IRE1 (Homo sapiens) (UniProt O75460). The experiment in a line: Inhibition of IRE1 Lys2 labeling site in human Huh-7 cell lysate at 1 uM by KiNativ Profiling analysis relative to control. The class given is subcellular.
The target of assay [16] is TRAF2 and NCK-interacting protein kinase (Homo sapiens) (UniProt Q9UKE5). The experiment in a line: Inhibition of ZC2/TNIK Lys1 labeling site in human Huh-7 cell lysate at 1 uM by KiNativ Profiling analysis relative to control. Format: subcellular.
The target in assay [17] is Serine/threonine-protein kinase MARK2 (Homo sapiens) (UniProt Q7KZI7). The experiment in a line: Inhibition of MARK2 Lys2 labeling site harbouring EVAIKIIDKTQLNPTSLQK in human Huh-7 cells at 1 uM by KiNativ Profiling analysis relative to control. Format: cell-based.
Assay [18] concerns the target Mitogen-activated protein kinase kinase kinase 1 (Homo sapiens) (UniProt Q13233). The experiment in a line: Inhibition of MAP3K1 Lys2 labeling site in human Huh-7 cells at 1 uM by KiNativ Profiling analysis relative to control. Format: cell-based.

Sequence of Serine/threonine-protein kinase 38-like (Homo sapiens) (Q9Y2H1 2-464 limits assumed): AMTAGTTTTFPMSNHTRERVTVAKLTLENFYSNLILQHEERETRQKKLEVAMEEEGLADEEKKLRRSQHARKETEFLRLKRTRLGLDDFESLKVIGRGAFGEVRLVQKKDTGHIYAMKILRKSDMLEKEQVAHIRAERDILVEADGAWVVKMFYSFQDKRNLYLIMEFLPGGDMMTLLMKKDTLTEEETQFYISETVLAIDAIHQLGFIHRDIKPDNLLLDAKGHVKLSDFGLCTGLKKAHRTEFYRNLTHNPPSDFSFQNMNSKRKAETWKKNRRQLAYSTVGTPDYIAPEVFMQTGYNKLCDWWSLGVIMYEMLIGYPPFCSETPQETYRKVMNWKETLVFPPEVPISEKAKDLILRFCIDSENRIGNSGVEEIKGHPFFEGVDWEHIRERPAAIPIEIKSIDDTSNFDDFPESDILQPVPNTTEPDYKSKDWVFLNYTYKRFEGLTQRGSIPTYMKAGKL
Sequence of Serine/threonine-protein kinase/endoribonuclease IRE1 (Homo sapiens) (O75460 19-977 limits assumed): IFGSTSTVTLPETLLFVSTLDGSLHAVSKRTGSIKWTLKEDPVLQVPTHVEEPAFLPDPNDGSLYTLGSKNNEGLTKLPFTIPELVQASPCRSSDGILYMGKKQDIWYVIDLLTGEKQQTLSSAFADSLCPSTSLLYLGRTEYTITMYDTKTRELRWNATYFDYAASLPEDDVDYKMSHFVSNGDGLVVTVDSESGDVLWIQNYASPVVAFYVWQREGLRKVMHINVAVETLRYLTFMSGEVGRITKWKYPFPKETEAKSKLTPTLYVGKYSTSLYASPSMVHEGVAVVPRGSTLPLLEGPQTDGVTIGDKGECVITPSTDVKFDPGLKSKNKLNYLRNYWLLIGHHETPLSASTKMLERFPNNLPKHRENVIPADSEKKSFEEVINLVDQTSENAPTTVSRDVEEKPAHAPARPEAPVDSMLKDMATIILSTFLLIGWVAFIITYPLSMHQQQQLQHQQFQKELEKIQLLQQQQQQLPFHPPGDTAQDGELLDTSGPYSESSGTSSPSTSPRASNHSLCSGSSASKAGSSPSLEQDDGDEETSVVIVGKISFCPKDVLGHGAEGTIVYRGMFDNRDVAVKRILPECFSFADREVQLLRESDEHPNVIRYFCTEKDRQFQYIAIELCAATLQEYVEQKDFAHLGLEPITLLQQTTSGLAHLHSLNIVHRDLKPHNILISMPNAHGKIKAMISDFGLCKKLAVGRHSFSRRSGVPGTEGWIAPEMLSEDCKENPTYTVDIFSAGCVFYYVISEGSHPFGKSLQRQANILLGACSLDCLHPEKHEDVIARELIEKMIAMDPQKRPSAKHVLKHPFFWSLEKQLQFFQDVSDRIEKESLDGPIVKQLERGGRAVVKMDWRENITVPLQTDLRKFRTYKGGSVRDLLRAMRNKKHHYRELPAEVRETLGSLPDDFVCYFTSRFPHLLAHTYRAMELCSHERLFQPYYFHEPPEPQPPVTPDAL
Sequence of Cyclin-dependent kinase 14 (Homo sapiens) (O94921 whole entry, looked up): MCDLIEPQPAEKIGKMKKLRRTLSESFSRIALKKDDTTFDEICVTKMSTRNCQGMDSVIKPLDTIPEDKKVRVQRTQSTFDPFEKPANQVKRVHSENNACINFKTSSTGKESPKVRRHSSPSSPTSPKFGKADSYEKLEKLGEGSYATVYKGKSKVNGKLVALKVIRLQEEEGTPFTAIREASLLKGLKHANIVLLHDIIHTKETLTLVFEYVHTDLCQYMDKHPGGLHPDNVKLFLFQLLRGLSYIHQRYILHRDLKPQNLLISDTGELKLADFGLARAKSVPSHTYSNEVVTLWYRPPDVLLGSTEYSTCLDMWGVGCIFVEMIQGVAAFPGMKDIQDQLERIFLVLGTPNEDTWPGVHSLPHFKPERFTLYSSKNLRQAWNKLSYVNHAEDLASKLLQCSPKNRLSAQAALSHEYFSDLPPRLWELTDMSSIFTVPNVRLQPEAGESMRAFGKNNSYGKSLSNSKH
Sequence of Serine/threonine-protein kinase MARK2 (Homo sapiens) (Q7KZI7 whole entry): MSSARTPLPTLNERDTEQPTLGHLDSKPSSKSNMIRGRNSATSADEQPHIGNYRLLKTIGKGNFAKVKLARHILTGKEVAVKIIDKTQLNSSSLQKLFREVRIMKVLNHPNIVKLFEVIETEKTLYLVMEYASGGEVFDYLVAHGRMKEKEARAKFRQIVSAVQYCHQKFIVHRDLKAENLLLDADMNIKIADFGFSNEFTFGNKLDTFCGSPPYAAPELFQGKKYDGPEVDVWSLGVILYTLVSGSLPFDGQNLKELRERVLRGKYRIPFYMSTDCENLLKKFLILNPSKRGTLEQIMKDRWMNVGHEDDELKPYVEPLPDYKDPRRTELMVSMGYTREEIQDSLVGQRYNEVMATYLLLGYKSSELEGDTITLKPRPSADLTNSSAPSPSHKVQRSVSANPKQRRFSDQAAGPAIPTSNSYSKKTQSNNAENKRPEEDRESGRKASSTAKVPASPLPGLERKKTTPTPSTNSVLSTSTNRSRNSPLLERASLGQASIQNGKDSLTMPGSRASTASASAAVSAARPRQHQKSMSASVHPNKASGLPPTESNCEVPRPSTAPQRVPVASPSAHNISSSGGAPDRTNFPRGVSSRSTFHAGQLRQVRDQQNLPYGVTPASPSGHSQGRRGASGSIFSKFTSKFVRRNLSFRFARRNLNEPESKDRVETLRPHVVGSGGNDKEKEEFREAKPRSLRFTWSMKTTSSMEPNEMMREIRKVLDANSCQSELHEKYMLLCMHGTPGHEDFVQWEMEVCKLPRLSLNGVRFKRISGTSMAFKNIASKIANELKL
Sequence of Calcium/calmodulin-dependent protein kinase type 1D (Homo sapiens) (Q8IU85 whole entry, looked up): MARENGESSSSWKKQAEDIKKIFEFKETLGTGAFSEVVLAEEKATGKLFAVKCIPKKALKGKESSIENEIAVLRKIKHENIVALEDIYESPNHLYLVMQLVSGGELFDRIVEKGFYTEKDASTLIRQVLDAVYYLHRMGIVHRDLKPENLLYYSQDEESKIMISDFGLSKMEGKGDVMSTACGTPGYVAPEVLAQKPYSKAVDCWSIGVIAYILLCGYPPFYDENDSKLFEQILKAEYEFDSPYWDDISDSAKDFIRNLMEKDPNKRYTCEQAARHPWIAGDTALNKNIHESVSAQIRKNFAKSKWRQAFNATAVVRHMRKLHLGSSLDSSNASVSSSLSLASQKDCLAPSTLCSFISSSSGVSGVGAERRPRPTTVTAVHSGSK
Sequence of Phosphatidylinositol 4-phosphate 5-kinase type-1 gamma (Homo sapiens) (O60331 whole entry): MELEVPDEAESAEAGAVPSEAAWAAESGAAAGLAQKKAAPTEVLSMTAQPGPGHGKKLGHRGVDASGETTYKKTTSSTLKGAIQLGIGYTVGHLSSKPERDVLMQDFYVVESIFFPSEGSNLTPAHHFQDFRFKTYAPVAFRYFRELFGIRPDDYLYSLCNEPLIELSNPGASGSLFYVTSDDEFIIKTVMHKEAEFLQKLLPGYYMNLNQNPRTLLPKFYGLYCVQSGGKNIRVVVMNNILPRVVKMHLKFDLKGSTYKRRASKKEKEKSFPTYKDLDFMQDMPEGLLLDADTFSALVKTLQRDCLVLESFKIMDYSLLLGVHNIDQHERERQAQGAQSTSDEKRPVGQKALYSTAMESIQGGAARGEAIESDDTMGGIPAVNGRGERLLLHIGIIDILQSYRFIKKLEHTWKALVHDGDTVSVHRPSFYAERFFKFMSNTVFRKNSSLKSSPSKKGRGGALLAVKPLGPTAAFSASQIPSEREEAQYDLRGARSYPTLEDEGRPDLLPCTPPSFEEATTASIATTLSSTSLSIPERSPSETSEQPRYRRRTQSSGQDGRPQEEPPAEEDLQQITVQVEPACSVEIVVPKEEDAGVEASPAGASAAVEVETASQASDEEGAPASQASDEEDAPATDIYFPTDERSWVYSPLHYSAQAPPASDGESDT
Sequence of Cyclin-dependent kinase 1 (Homo sapiens) (P06493 whole entry, looked up): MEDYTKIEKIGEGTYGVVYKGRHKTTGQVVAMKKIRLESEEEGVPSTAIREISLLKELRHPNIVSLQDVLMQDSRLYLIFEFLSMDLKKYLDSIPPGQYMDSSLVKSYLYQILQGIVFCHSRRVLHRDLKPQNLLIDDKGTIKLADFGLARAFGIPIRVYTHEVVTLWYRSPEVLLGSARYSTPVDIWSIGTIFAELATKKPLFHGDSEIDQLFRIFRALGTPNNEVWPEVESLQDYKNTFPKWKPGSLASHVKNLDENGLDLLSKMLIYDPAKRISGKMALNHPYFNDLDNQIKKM
Sequence of MAP/microtubule affinity-regulating kinase 4 (Homo sapiens) (Q96L34 whole entry): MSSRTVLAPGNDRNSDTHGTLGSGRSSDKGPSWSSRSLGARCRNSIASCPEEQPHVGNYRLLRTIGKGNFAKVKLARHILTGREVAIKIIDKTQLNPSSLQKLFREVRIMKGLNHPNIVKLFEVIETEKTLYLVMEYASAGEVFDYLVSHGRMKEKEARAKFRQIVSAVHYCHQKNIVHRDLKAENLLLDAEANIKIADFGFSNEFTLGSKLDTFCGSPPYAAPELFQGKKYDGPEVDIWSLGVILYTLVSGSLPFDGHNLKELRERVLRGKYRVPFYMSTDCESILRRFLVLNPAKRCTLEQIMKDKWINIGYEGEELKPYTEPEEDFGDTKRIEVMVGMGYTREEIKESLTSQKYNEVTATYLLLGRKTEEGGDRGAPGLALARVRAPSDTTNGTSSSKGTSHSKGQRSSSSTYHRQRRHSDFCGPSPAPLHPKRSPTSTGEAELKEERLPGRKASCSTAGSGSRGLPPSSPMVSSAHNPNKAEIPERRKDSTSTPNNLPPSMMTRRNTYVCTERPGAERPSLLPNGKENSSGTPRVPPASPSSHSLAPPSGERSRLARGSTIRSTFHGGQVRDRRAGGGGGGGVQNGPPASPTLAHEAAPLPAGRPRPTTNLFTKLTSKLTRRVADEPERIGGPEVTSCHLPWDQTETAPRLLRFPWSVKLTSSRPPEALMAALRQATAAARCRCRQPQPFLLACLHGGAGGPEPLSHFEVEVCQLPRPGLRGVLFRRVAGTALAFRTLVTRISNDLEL

For `CCN1CCN(Cc2ccc(NC(=O)c3ccc(C)c(/C=C/c4cnc5[nH]ccc5c4OC)c3)cc2C(F)(F)F)CC1`, the residual activity (as a rule, the signal under treatment as a percentage of the control signal) in assay [1] came to 5.7%. Moreover, the inhibition (usually the drop in the measured response relative to a control, in per cent) is 81% in assay [2], 32.2% in assay [3], 10.4% in assay [6] and 5.8% in [7]. The percent of control is 100% in assay [4] and 1.2% in [5].

`CCN1CCN(Cc2ccc(NC(=O)c3ccc(C)c(Oc4ccnc5[nH]ccc45)c3)cc2C(F)(F)F)CC1` gave a residual activity in assay [8] of 4.6%. Moreover, the inhibition in [9] is 6.2%; in assay [10], 0%; in assay [11] it was 25.2%; in assay [12], 8.3%. Besides, the inhibition result in assay [13] is “inactive”.

Take `CNc1cc(Oc2cc(C(=O)Nc3cc(N4CCN(C)CC4)cc(C(F)(F)F)c3)ccc2C)ncn1`: the inhibition was 4.2% in [14]; -2.5% in [15]; 11.9% in assay [16]; 11.3% in assay [17]; 27% in assay [18].

The record behind these values is ChEMBL document CHEMBL5696442, “Discovery of type II inhibitors of TGFβ-activated kinase 1 (TAK1) and mitogen-activated protein kinase kinase kinase kinase 2 (MAP4K2)” (J Med Chem, 2015).
